Measured values as given in article PMC3103600 (Journal of natural products, 2011).
Read-outs that look alike come from different tables or passages of the source.

Columns and labels:
[1] = system: heme-regulated eIF2α kinase (HRI); experiment: Stability of [35S]HRI in reticulocyte lysate; assay type: biochemical; conditions: 45 min, heme-deficient lysate
[2] = system: Hsp90, Hsp70 and Cdc37 with HRI/K199R; assay type: biochemical; conditions: low ionic strength wash
[3] = system: heme-regulated eIF2α kinase (HRI); experiment: Hsp90-dependent HRI maturation/activation in heme-deficient reticulocyte lysate; conditions: 45 min
native luciferase = native luciferase (Photinus pyralis, UniProt P08659); experiment: Counter-screen against native luciferase; assay type: biochemical, firefly
Chain of native luciferase (P08659 whole entry): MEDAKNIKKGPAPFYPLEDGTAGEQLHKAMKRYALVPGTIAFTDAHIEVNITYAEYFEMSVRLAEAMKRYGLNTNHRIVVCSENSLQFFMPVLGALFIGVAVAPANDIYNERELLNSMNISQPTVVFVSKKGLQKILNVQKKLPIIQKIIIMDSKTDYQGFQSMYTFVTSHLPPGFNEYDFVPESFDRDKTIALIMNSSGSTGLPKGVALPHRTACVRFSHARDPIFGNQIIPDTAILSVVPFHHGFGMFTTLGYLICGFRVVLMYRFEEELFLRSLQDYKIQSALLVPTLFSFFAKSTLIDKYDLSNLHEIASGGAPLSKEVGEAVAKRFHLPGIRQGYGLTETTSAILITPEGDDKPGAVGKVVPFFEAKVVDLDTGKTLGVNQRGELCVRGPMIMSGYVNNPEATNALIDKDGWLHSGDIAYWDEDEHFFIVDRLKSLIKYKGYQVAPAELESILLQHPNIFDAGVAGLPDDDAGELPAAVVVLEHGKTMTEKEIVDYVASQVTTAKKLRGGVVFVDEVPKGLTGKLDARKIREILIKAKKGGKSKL

[4] = molecular target: full length Hsp90 (human Hsp90β) (Homo sapiens, UniProt P08238); experiment: SPR binding to full length Hsp90; conditions: full length Hsp90, 25 °C
Chain of full length Hsp90 (human Hsp90β) (P08238 whole entry): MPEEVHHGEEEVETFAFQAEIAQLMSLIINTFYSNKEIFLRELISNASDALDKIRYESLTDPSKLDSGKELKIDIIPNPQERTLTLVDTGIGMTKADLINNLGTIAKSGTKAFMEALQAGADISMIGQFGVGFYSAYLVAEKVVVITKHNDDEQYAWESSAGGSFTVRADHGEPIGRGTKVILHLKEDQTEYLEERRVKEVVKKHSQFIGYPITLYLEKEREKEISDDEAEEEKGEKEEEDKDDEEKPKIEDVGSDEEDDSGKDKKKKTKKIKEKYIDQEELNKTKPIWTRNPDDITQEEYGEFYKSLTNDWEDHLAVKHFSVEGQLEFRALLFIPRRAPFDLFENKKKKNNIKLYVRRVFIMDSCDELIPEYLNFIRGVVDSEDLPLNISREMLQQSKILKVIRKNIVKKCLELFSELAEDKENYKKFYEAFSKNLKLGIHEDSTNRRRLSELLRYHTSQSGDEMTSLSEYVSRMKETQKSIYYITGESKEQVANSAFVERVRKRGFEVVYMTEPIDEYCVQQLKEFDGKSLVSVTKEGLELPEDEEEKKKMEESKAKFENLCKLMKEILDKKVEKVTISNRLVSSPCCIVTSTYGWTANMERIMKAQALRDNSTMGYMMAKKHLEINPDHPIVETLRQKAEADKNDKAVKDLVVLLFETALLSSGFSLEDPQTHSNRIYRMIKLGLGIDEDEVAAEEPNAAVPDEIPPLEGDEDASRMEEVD

[5] = system: Her2, Akt, Raf-1, Hsp70, Hsp90 in MCF7 cells; experiment: Western blot of Hsp90 client proteins and heat shock proteins, MCF7; assay type: cell-based; conditions: MCF7, 36 h
[6] = molecular target: Hsp90NT (N-terminal domain of Hsp90α, amino acids 1–241) (Homo sapiens, UniProt P07900); experiment: SPR binding to N-terminal domain of Hsp90
[7] = system: Her2, Akt, Raf-1, Hsp70, Hsp90 in Sk-Br3 cells; experiment: Western blot of Hsp90 client proteins and heat shock proteins, SkBr3; assay type: cell-based; conditions: Sk-Br3, 36 h
[8] = molecular target: Hsp90CT (C-terminal domain of Hsp90, amino acids 531–732) (Homo sapiens, UniProt P07900); experiment: SPR binding to C-terminal domain of Hsp90

## [Na+].[Na+].[O]=[Mo](=[O])([O-])[O-] [molybdate, sodium molybdate]
[1]; 20 mM
  loss of [35S]HRI compared to the DMSO control: 10%
[2]; 20 mM
  effect on binding of Hsp90, Hsp70, Cdc37 to HRI/K199R: stabilized the binding of Hsp90 and Cdc37 to HRI/K199R, while not affecting the interaction of Hsp70 with HRI/K199R
[3]; 20 mM
  effect on HRI maturation/activation: inhibited the maturation/ activation of HRI

## COC1=C2C[C@@H](C)C[C@H](OC)[C@H](O)[C@@H](C)/C=C(\C)[C@H](OC(N)=O)[C@@H](OC)/C=C\C=C(/C)C(=O)NC(=CC1=O)C2=O [Compound 3, geldanamycin]
[1]; 80 µM
  loss of [35S]HRI compared to the DMSO control: 0%
[3]; 80 µM
  effect on HRI maturation/activation: inhibited the maturation/ activation of HRI

## CO[C@H]1[C@H](OC(=O)c2ccc(C)[nH]2)[C@H](O)[C@@H](Oc2ccc3c(O)c(NC(=O)c4c[nH]c(C(=O)Nc5c(O)c6ccc(O[C@H]7OC(C)(C)[C@@H](OC)[C@H](OC(=O)c8ccc(C)[nH]8)[C@@H]7O)c(C)c6oc5=O)c4C)c(=O)oc3c2C)OC1(C)C [Compound 5, coumermycin A1]
[2]; 400 µM
  effect on binding of Hsp90, Hsp70, Cdc37 to HRI/K199R: disrupted the interaction of Hsp90, Hsp70 and Cdc37 with HRI/K199R
[3]; 400 µM
  effect on HRI maturation/activation: also inhibited the maturation/ activation of HRI

## CO[C@@H]1[C@@H](OC(N)=O)[C@@H](O)[C@H](Oc2ccc3c(O)c(NC(=O)c4ccc(O)c(CC=C(C)C)c4)c(=O)oc3c2C)OC1(C)C [Compound 4, novobiocin]
[2]; 4.0 mM
  effect on binding of Hsp90, Hsp70, Cdc37 to HRI/K199R: disrupted the interaction of Hsp90, Hsp70 and Cdc37 with HRI/K199R
[3]; 4.0 mM
  effect on HRI maturation/activation: also inhibited the maturation/ activation of HRI

## CC1=C(O)C(=O)C=C2C1=CC=C1[C@@]2(C)CC[C@@]2(C)[C@@H]3C[C@](C)(C(=O)O)CC[C@]3(C)CC[C@]12C [Compound 2, celastrol]
[2]; 100 µM
  effect on binding of Hsp90, Hsp70, Cdc37 to HRI/K199R: disrupted the binding of Hsp90, Hsp70, and Cdc37 to HRI
Native luciferase
  direct effect on the activity of native luciferase: Neither celastrol nor 1 had any direct effect
[3]; 100 µM
  effect on HRI maturation/activation: inhibited the maturation/ activation of HRI

## CC(C)=CCC[C@]1(C)C=Cc2c(O)c3c(c(CC=C(C)C)c2O1)O[C@]12C(=C[C@@H]4C[C@H]1C(C)(C)O[C@@]2(C/C=C(/C)C(=O)O)C4=O)C3=O [Compound 1, (−)-gambogic acid]
[4]
  kd: 0.0113(4) S^−1
[5]
  depletion of Hsp90-dependent proteins Her2, Akt, Raf-1: deplete MCF7 and Sk-Br3 cells of Her2, Akt and Raf-1 in a concentration dependent fashion
  induction of Hsp90 and Hsp70 expression: induced Hsp90 and Hsp70 expression
[6]; 25 °C
  kd: 0.01122(7) S^−1
[6]; +20 µM GA in analyte buffer
  kd: 0.0114(7) S^−1
[2]; 50 µM
  effect on binding of Hsp90, Hsp70, Cdc37 to HRI/K199R: disrupted the binding of Hsp90, Hsp70, and Cdc37 to HRI
Native luciferase
  direct effect on the activity of native luciferase: Neither celastrol nor 1 had any direct effect
[7]
  depletion of Hsp90-dependent proteins Her2, Akt, Raf-1: deplete MCF7 and Sk-Br3 cells of Her2, Akt and Raf-1 in a concentration dependent fashion
  induction of Hsp90 and Hsp70 expression: induced Hsp90 and Hsp70 expression
[3]; 50 µM
  effect on HRI maturation/activation: inhibited the maturation/ activation of HRI
[8]
  KD: no binding
  ka: no binding
  kd: no binding
